Data on two compounds can be found in ChEMBL document CHEMBL1153838, “Optimization of the dosage of flucytosine in combination with amphotericin B for disseminated candidiasis: a pharmacodynamic rationale for reduced dosing” (2007).

In brackets after ≈: the same amount, converted by molar mass.

Format in all cases: functional
For one assay, the system named is Candida albicans. The assay is described as follows: Antifungal activity against Candida albicans isolates by broth microdilution method. (Dilution methods test growth across graded concentrations, often in twofold steps.)
Assay [1] deals with Candida. Briefly: Antifungal activity against Candida isolates by CLSI methods.
In assay [2] the test system is Candida. Briefly: Antifungal activity against Candida isolates.
Assay [3] in a line: T>MIC in Candida species infected patients at 25 mg/kg/day administered as four divided doses.
Assay [4] deals with Candida. The assay is described as follows: Antifungal activity against Candida species infected patients assessed as residual fungal burden at 0.1 mg/kg/day administered as single dose.
Assay [5] has as its system Candida. The assay is described as follows: Antifungal activity against Candida species infected patients assessed as residual fungal burden at 0.3 mg/kg/day administered as single dose.
Assay [6] deals with Candida. Briefly: Antifungal activity against Candida species infected patients assessed as residual fungal burden at 0.6 mg/kg/day administered as single dose.

As a reminder, the MIC is the smallest concentration in the dilution series that meets the test's criterion for growth inhibition. A higher MIC goes with a less susceptible organism. Broadly, the MIC90 is the lowest concentration that inhibits either 90% of growth or 90% of the strains tested, depending on the study. Lower therefore signals greater potency. Consider `Nc1nc(=O)[nH]cc1F` [FLUCYTOSINE], for which the MIC against Candida albicans was found to be 0.125 µg/mL (≈ 0.968 µM). In addition, in the assay on Candida [1], the MIC90 stood at 1 µg/mL (≈ 7.75 µM).

In turn, `C[C@@H]1[C@H](O)[C@@H](C)/C=C/C=C/C=C/C=C/C=C/C=C/C=C/[C@H](O[C@@H]2O[C@H](C)[C@@H](O)[C@H](N)[C@@H]2O)C[C@@H]2O[C@](O)(C[C@@H](O)C[C@@H](O)[C@H](O)CC[C@@H](O)C[C@@H](O)CC(=O)O[C@H]1C)C[C@H](O)[C@H]2C(=O)O` [AMPHOTERICIN B] showed an MIC with Candida [2] of no more than 1 µg/mL. In addition, in assay [3], the “T>MIC” value is on record as 100%. In addition, the log10CFU/g in the assay on Candida [4] came to 2.2; with Candida [5], 1; in the assay on Candida [6], 0.6.
